In brackets after ≈: the same amount, converted by molar mass. Like-named read-outs stand apart in the source and are kept apart here.
How the values were obtained:
[1] = tested on: Treponema hyodysenteriae; assay: in vitro agar plate test against Treponema hyodysenteriae; settings: four days anaerobic
[2] = tested on: Bacteroides melaninogenicus 1856/28; assay: standard agar-dilution test, anaerobic bacteria; type: cell-based; settings: Prevotella intermedia; Bacteroides melaninogenicus 1856/28; 24-hour incubation; read-out: MIC
[3] = tested on: Streptococcus pneumoniae B1492; assay: in vivo antimicrobial activity, experimental infection in mice, Streptococcus pneumoniae B1492; settings: sc, two doses, infecting challenge 340 × LD50 (ip), read-out: ED50 × 2
Method: (§1) Typical compounds of the present invention have shown in vivo antimicrobial activity against experimental bacterial infections. When two doses of these compounds were administered to mice in illustrative infections, the activity observed was measured as an ED50 value [effective dose in mg/kg to protect 50% of the test animals; see Warren Wick, et al., J. Bacteriol. 81, 233-235 (1961)].

[4] = tested on: Clostridium perfringens; assay: microbe, parasite or virus in culture; type: cell-based; settings: 24 h
[5] = tested on: Eubacterium aerofaciens; assay: standard agar-dilution test, anaerobic bacteria; type: cell-based; settings: Collinsella aerofaciens; Eubacterium aerofaciens; 24-hour incubation; read-out: MIC
[6] = tested on: Pasteurella multocida (turkey); assay: in vitro activity against Pasteurella multocida (turkey); type: cell-based
Source text: (§2) The activity of representative compounds of this invention (R^2 =H in group tested) against P. multocida and the Pseudomonas sp. is summarized in Table VI.

[7] = tested on: Bacteroides fragilis 111; assay: standard agar-dilution test, anaerobic bacteria; type: cell-based; settings: Bacteroides fragilis 111; 24-hour incubation; read-out: MIC
[8] = tested on: Bacteroides vulgatis; assay: standard agar-dilution test, anaerobic bacteria; type: cell-based; settings: Bacteroides vulgatis; 24-hour incubation; read-out: MIC
[9] = tested on: Staphylococcus aureus (H-Heatley) NRRL B-314; assay: in vitro turbidometric assay (Autoturb Microbiological Assay System) against Staphylococcus aureus; type: cell-based; settings: nutrient broth pH 7, approximately 4 hours at 37° C., A-40104 factor A as standard
Method: The compounds are conveniently tested against a typical gram-positive organism, Staphylococcus aureus, using a turbidometric assay on a semi-automated system (Autoturb Microbiological Assay System, Elanco) described by N. R. Kuzel and F. W. Kavanagh in J. Pharmaceut. Sci, 60 (5), 764 and 767 (1971). In testing these compounds, the following parameters were used: Staphylococcus aureus (H-Heatley) NRRL B-314 in a nutrient broth medium (pH 7), incubated for approximately 4 hours at 37° C. Test samples and A-40104 factor A, which is used as a standard, were dissolved in water. The standard was presented to the Autoturb carrousel at concentrations of 1.25, 2.50, 3.75, 5.00 and 6.25 mcg/ml. Test compounds were diluted to contain approximately 2.5 to 5.0 mcg of activity per ml, as presented to the carrousel. The units of activity of some of the typical compounds of this invention (R^2 =H in group tested) in this in vitro assay are summarized in Table I

[10] = tested on: Peptostreptococcus intermedius; assay: standard agar-dilution test, anaerobic bacteria; type: cell-based; settings: Peptostreptococcus intermedius; 24-hour incubation; read-out: MIC
[11] = tested on: Bacteroides fragilis 1877; assay: standard agar-dilution test, anaerobic bacteria; type: cell-based; settings: Bacteroides fragilis 1877; 24-hour incubation; read-out: MIC
[12] = tested on: Streptococcus pneumoniae Park I; assay: in vivo antimicrobial activity, experimental infection in mice, Streptococcus pneumoniae Park I; settings: sc, read-out: ED50 × 2
Method: as §1

[13] = tested on: Bacteroides fragilis 1936B; assay: standard agar-dilution test, anaerobic bacteria; type: cell-based; settings: Bacteroides fragilis 1936B; 24-hour incubation; read-out: MIC
[14] = tested on: Pseudomonas sp. (fish); assay: in vitro activity against Pseudomonas sp. (fish); type: cell-based
Source text: P. multocida, for example, is a causative agent of respiratory infection in cattle, poultry and swine. P. hemolytica is a major cause of respiratory disease in cattle. The activity of representative compounds of this invention (R^2 =H in group tested) against P. multocida and the Pseudomonas sp. is summarized in Table VI.

[15] = tested on: Streptococcus pyrogenes C203; assay: in vivo antimicrobial activity, experimental infection in mice, Streptococcus pyrogenes C203; settings: sc, two doses, infecting challenge 370 × LD50 (ip), read-out: ED50 × 2
Method: as §1

[16] = tested on: Peptostreptococcus anaerobius; assay: standard agar-dilution test, anaerobic bacteria; type: cell-based; settings: 24-hour incubation
[17] = tested on: Staphylococcus aureus 3055; assay: in vivo antimicrobial activity, experimental infection in mice, Staphylococcus aureus 3055; settings: two doses, read-out: ED50 × 2
Method: as §1

[18] = tested on: Actinomyces israelii; assay: standard agar-dilution test, anaerobic bacteria; type: cell-based; settings: 24-hour incubation
[19] = tested on: Peptococcus asaccharolyticus; assay: standard agar-dilution test, anaerobic bacteria; type: cell-based; settings: Peptoniphilus asaccharolyticus, 24-hour incubation
[20] = toxicity (LD50) on intraperitoneal injection in mice; settings: mouse, in vivo, ip
[21] = tested on: Pasteurella multocida (bovine); assay: in vitro activity against Pasteurella multocida (bovine); type: cell-based
Source text: as §2

[22] = tested on: Clostridium septicum; assay: standard agar-dilution test, anaerobic bacteria; type: cell-based; settings: 24-hour incubation
Method: (§3) Table IV summarizes the activity of typical compounds of this invention, as determined by the standard agar-dilution test.
(§4) *Endpoint read after 24-hour incubation

[23] = tested on: Bacteroides thetaiotaomicron; assay: standard agar-dilution test, anaerobic bacteria; type: cell-based; settings: 24-hour incubation
Method: as §3, §4

[24] = tested on: Bacteroides melaninogenicus 2736; assay: standard agar-dilution test, anaerobic bacteria; type: cell-based; settings: Bacteroides melaninogenicus 2736; 24-hour incubation; read-out: MIC
[25] = tested on: Mycoplasma synoviae; assay: in vitro broth-dilution studies, mycoplasma; type: cell-based; settings: Mycoplasmopsis synoviae
Source text: (§5) The minimal inhibitory concentrations (MIC's) of a number of typical compounds of the present invention (R^2 =H in group tested) against various mycoplasma species, as determined by in vitro broth-dilution studies, are summarized in Table V.

[26] = tested on: Mycoplasma gallisepticum; assay: in vitro broth-dilution studies, mycoplasma; type: cell-based; settings: Mycoplasmoides gallisepticum
Source text: as §5

[27] = tested on: Mycoplasma hyopneumoniae; assay: in vitro broth-dilution studies, mycoplasma; type: cell-based; settings: Mesomycoplasma hyopneumoniae
Source text: as §5

[28] = tested on: Mycoplasma hyorhinis; assay: in vitro broth-dilution studies, mycoplasma; type: cell-based
Source text: as §5

[29] = tested on: Spiroplasma citri; assay: in vitro inhibition of Spiroplasma citri measured by a color reaction; type: cell-based
Method: In another important aspect, the compounds of this invention are active against Spiroplasmas. Spiroplasma citri is the causative agent of citrus-stubborn disease; another Spiroplasma, corn-stunt Spiroplasma, affects the growth of corn. Table VII summarizes the in vitro activity of representative compounds of the present invention (R^2 =H in this group) against Spiroplasma citri. In this test, inhibition of S. citri is measured by a color reaction. Red (R) includes complete inhibition; red-orange (RO) indicates partial inhibition; and yellow (Y) indicates no inhibition.

[30] = tested on: Bacteroides corrodens; assay: standard agar-dilution test, anaerobic bacteria; type: cell-based; settings: Eikenella corrodens; Bacteroides corrodens; 24-hour incubation; read-out: MIC
[31] = tested on: Pasteurella hemolytica; assay: in vitro tests against Pasteurella hemolytica; type: cell-based
[32] = tested on: Peptococcus prevoti; assay: standard agar-dilution test, anaerobic bacteria; type: cell-based; settings: Peptococcus prevoti; 24-hour incubation; read-out: MIC
[33] = tested on: Fusobacterium necrophorum; assay: standard agar-dilution test, anaerobic bacteria; type: cell-based; settings: 24-hour incubation, read-out: MIC
[34] = tested on: Fusobacterium symbiosum; assay: standard agar-dilution test, anaerobic bacteria; type: cell-based; settings: Fusobacterium symbiosum; 24-hour incubation; read-out: MIC

C=C[C@]1(C)C[C@@H](OC(=O)CS[C@@H]2OC[C@@H](O)[C@H](O)[C@H]2O)[C@]2(C)[C@H](C)CC[C@]3(CCC(=O)[C@H]32)[C@@H](C)[C@@H]1O [Compound 2]
inhibition of growth ([1]; 0.5 mcg/ml agar concentration): inhibited growth
inhibition of growth ([1]; 5.0 mcg/ml agar concentration): inhibited growth
inhibition of growth ([1]; 50 mcg/ml agar concentration): inhibited growth
MIC [2]: > 128 µg/mL
ED50 [3]: 15.3 mg/kg
MIC [4]: 2 µg/mL (≈ 3.8 µM)
MIC [5]: 1 µg/mL (≈ 1.9 µM)
MIC [6]: 6.25 µg/mL (≈ 11.9 µM)
MIC [7]: 1 µg/mL (≈ 1.9 µM)
MIC [8]: 1 µg/mL (≈ 1.9 µM)
Units of Activity [9]: 995 to 1003 µg/mg
MIC [10]: ≤ 0.5 µg/mL
MIC [11]: 1 µg/mL (≈ 1.9 µM)
ED50 [12]: 65 mg/kg
MIC [13]: 1 µg/mL (≈ 1.9 µM)
MIC [14]: 6.25 µg/mL (≈ 11.9 µM)
ED50 [15]: 11.4 mg/kg
MIC [16]: ≤ 0.5 µg/mL
ED50 ([17]; Staphylococcus aureus, 3055, po, oral, infecting challenge 500 × LD50 (ip)): 32.4 mg/kg
ED50 ([17]; Staphylococcus aureus, 3055, po, oral, infecting challenge 3400 × LD50 (ip)): 44 mg/kg
ED50 ([17]; Staphylococcus aureus, 3055, sc, sc, infecting challenge 82 × LD50 (ip)): 1.85 mg/kg
MIC [18]: ≤ 0.5 µg/mL
MIC [19]: ≤ 0.5 µg/mL
LD50 [20]: > 1500 mg/kg
MIC [21]: 3.12 µg/mL (≈ 5.92 µM)
MIC [22]: 2 µg/mL (≈ 3.8 µM)
MIC [23]: 1 µg/mL (≈ 1.9 µM)
MIC [24]: 1 µg/mL (≈ 1.9 µM)
MIC [25]: 0.78 µg/mL (≈ 1.48 µM)
MIC [26]: 0.78 µg/mL (≈ 1.48 µM)
MIC [27]: ≤ 0.15 µg/mL
MIC [28]: 0.39 µg/mL (≈ 0.74 µM)
Activity (color reaction) ([29]; 0.01 ppm): RO,RO
Activity (color reaction) ([29]; 0.05 ppm): --,R
Activity (color reaction) ([29]; 0.1 ppm): R,R
Activity (color reaction) ([29]; 1.0 ppm): R,R
MIC [30]: 1 µg/mL (≈ 1.9 µM)
MIC [31]: 12.5 µg/mL (≈ 23.7 µM)
MIC [32]: ≤ 0.5 µg/mL
MIC [33]: ≤ 0.5 µg/mL
MIC [34]: 2 µg/mL (≈ 3.8 µM)

C=C[C@]1(C)C[C@@H](OC(=O)CS[C@@H]2OC[C@@H](OC(C)=O)[C@H](OC(C)=O)[C@H]2OC(C)=O)[C@]2(C)[C@H](C)CC[C@]3(CCC(=O)[C@H]32)[C@@H](C)[C@@H]1O [Compound 1, 14-deoxy-14-[(2,3,4-tri-O-acetyl-β-D-xylopyranosyl)thioacetoxy]mutilin]
MIC [2]: > 128 µg/mL
MIC [4]: 16 µg/mL (≈ 24.5 µM)
MIC [5]: 16 µg/mL (≈ 24.5 µM)
MIC [6]: 50 µg/mL (≈ 76.6 µM)
MIC [7]: 8 µg/mL (≈ 12.3 µM)
MIC [8]: 4 µg/mL (≈ 6.13 µM)
Units of Activity [9]: 568 to 579 µg/mg
MIC [10]: ≤ 0.5 µg/mL
MIC [11]: 4 µg/mL (≈ 6.13 µM)
MIC [13]: 8 µg/mL (≈ 12.3 µM)
MIC [14]: 12.5 µg/mL (≈ 19.1 µM)
MIC [16]: ≤ 0.5 µg/mL
MIC [18]: ≤ 0.5 µg/mL
MIC [19]: ≤ 0.5 µg/mL
MIC [21]: < 50 µg/mL
MIC [22]: ≤ 0.5 µg/mL
MIC [23]: 8 µg/mL (≈ 12.3 µM)
MIC [24]: 2 µg/mL (≈ 3.06 µM)
Activity (color reaction) ([29]; 0.01 ppm): Y,RO
Activity (color reaction) ([29]; 0.05 ppm): --,R
Activity (color reaction) ([29]; 0.1 ppm): R,R
Activity (color reaction) ([29]; 1.0 ppm): R,R
MIC [30]: 4 µg/mL (≈ 6.13 µM)
MIC [32]: ≤ 0.5 µg/mL
MIC [33]: ≤ 0.5 µg/mL
MIC [34]: 4 µg/mL (≈ 6.13 µM)

— patent US4130709A, “Pleuromutilin glycoside derivatives” (Eli Lilly and Company, priority 1977, dated 1978)
